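Each compound was tested at five concentrations against cells in 96-well plates for 48 hours. Abbreviation: GI50, concentration required for 50% inhibition of growth.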 The source made the active and inactive calls. Cut-off read from the data, not from the text of the source: active = GI50 up to about 1.1 µM and inactive = higher.
How the values were obtained:
Assay in all cases: NCI tumour cell line growth inhibition, 48 h
NCI/ADR-RES = system: NCI/ADR-RES
SF-268 = system: SF-268
OVCAR-3 = system: OVCAR-3
A549 = system: A549
HOP-92 = system: HOP-92
PC-3 = system: PC-3
MDA-MB-435 = system: MDA-MB-435
HL-60 = system: HL-60
Hs-578T = system: Hs-578T
EKVX = system: EKVX
HT-29 = system: HT-29
MDA-MB-231 = system: MDA-MB-231
ACHN = system: ACHN
UACC-62 = system: UACC-62
HCT-116 = system: HCT-116
K562 = system: K562
Malme-3M = system: Malme-3M
MOLT-4 = system: MOLT-4

Compound | GI50 (NCI/ADR-RES) | GI50 (SF-268) | GI50 (OVCAR-3) | GI50 (A549) | GI50 (HOP-92) | GI50 (PC-3) | GI50 (MDA-MB-435) | GI50 (HL-60) | GI50 (Hs-578T) | GI50 (EKVX) | GI50 (HT-29) | GI50 (MDA-MB-231) | GI50 (ACHN) | GI50 (UACC-62) | GI50 (HCT-116) | GI50 (K562) | GI50 (Malme-3M) | GI50 (MOLT-4)
Cc1c2c(nc3ccccc13)C(=O)c1cccnc1C2=O | 27.2 µM (inactive) | 25.2 µM (inactive) | 11.7 µM (inactive) | 1.66 µM (inactive) | 65.5 µM (inactive) | 24.3 µM (inactive) | 1.79 µM (inactive) | 15.1 µM (inactive) | 33.5 µM (inactive) | 20 µM (inactive) | 9.84 µM (inactive) | 8.34 µM (inactive) | 10.6 µM (inactive) | 3.15 µM (inactive) | 3.91 µM (inactive) | 20 µM (inactive) | 1.29 µM (inactive) | 9.71 µM (inactive)
CCC1C(=O)OCc2c1cc1n(c2=O)Cc2cc3ccccc3nc2-1 (stereo not given) | 8.43 µM (inactive) | 3.67 µM (inactive) | > 100 µM (inactive) | 5.09 µM (inactive) | 13.1 µM (inactive) | 15.4 µM (inactive) | 44.3 µM (inactive) | 1.88 µM (inactive) | > 54.3 µM (inactive) | 77.6 µM (inactive) | 29.5 µM (inactive) | > 100 µM (inactive) | 3.28 µM (inactive) | 3.72 µM (inactive) | 8.41 µM (inactive) | 18.1 µM (inactive) | 60.3 µM (inactive) | 0.733 µM (active)
N#Cc1c(O)cc(=O)n2c1[nH]c1ccccc12 | > 100 µM (inactive) | > 100 µM (inactive) | > 100 µM (inactive) | > 100 µM (inactive) | > 100 µM (inactive) | > 100 µM (inactive) | > 100 µM (inactive) | > 100 µM (inactive) | > 100 µM (inactive) | > 100 µM (inactive) | > 100 µM (inactive) | > 100 µM (inactive) | > 100 µM (inactive) | > 100 µM (inactive) | > 100 µM (inactive) | > 100 µM (inactive) | > 100 µM (inactive) | > 100 µM (inactive)
CC1(C)CCCCCCCCCC2CC2CCC(C)(C)C1=O (stereo not given) | 21 µM (inactive) | 22.4 µM (inactive) | 12.7 µM (inactive) | 22.9 µM (inactive) | 26.3 µM (inactive) | 28.8 µM (inactive) | 23 µM (inactive) | 22 µM (inactive) | 31.3 µM (inactive) | 20.2 µM (inactive) | 20.3 µM (inactive) | 17.3 µM (inactive) | 19.1 µM (inactive) | 36.1 µM (inactive) | 16.6 µM (inactive) | 15.6 µM (inactive) | 21 µM (inactive) | 28.5 µM (inactive)
CCNC(=O)c1cc(/C=C/c2ccc([N+](=O)[O-])o2)nc2ccccc12 | 51.4 µM (inactive) | 23.7 µM (inactive) | > 62.4 µM (inactive) | 24.2 µM (inactive) | > 22.4 µM (inactive) | > 100 µM (inactive) | 2.19 µM (inactive) | 2.75 µM (inactive) | 63.7 µM (inactive) | > 58.2 µM (inactive) | 6.82 µM (inactive) | 14.9 µM (inactive) | 2.26 µM (inactive) | 32.1 µM (inactive) | 5.4 µM (inactive) | 6.79 µM (inactive) | 15.7 µM (inactive) | 0.276 µM (active)
COC(=O)c1c(C#C[Si](C)(C)C)c(C#C[Si](C)(C)C)c(C#C[Si](C)(C)C)c(C#C[Si](C)(C)C)c1C(=O)OC | > 100 µM (inactive) | > 100 µM (inactive) | > 100 µM (inactive) | > 100 µM (inactive) | > 100 µM (inactive) | > 100 µM (inactive) | > 100 µM (inactive) | > 100 µM (inactive) | > 100 µM (inactive) | > 100 µM (inactive) | > 100 µM (inactive) | > 100 µM (inactive) | > 100 µM (inactive) | > 100 µM (inactive) | > 100 µM (inactive) | > 100 µM (inactive) | > 100 µM (inactive) | > 100 µM (inactive)
Cc1cn(C2CC(OC(c3ccccc3)(c3ccccc3)c3ccccc3)C(COC(c3ccccc3)(c3ccccc3)c3ccccc3)O2)c(=O)[nH]c1=O (stereo not given) | > 100 µM (inactive) | 99.8 µM (inactive) | > 100 µM (inactive) | 34.3 µM (inactive) | 21.1 µM (inactive) | 16 µM (inactive) | 26.2 µM (inactive) | 53.1 µM (inactive) | 38.1 µM (inactive) | 45.6 µM (inactive) | 61 µM (inactive) | 37.7 µM (inactive) | 68.4 µM (inactive) | > 100 µM (inactive) | 17.1 µM (inactive) | 38.6 µM (inactive) | 68.7 µM (inactive) | 29.4 µM (inactive)
CC(=O)OC12OC(C)(C3C(=O)N(c4ccccc4)C(=O)C31)N(c1ccccc1)C2=O (stereo not given) | > 100 µM (inactive) | > 100 µM (inactive) | > 100 µM (inactive) | > 100 µM (inactive) | 45.7 µM (inactive) | 69.3 µM (inactive) | > 100 µM (inactive) | > 100 µM (inactive) | > 100 µM (inactive) | 84.7 µM (inactive) | > 100 µM (inactive) | > 100 µM (inactive) | > 100 µM (inactive) | > 100 µM (inactive) | > 100 µM (inactive) | > 100 µM (inactive) | > 100 µM (inactive) | > 100 µM (inactive)
COc1c(C(=O)NCCN(CCNC(=O)c2cccc(-c3cccc(C(=O)N(C)C)c3OC)c2OC)CCNC(=O)c2cccc(-c3cccc(C(=O)N(C)C)c3OC)c2OC)cccc1-c1cccc(C(=O)N(C)C)c1OC | > 100 µM (inactive) | 15.3 µM (inactive) | 16.1 µM (inactive) | > 100 µM (inactive) | 14.4 µM (inactive) | 38.4 µM (inactive) | 20.9 µM (inactive) | 39.4 µM (inactive) | 32.4 µM (inactive) | 47.6 µM (inactive) | 33.1 µM (inactive) | 32.4 µM (inactive) | > 100 µM (inactive) | 31.6 µM (inactive) | 20 µM (inactive) | 23.8 µM (inactive) | 18.7 µM (inactive) | 24.7 µM (inactive)
OCC1OC(c2scc3c(=S)[nH]cnc23)C(O)C1O (stereo not given) | 3.05 µM (inactive) | 21.2 µM (inactive) | 2.19 µM (inactive) | 31.7 µM (inactive) | 0.796 µM (active) | 2.53 µM (inactive) | 20.4 µM (inactive) | 3.63 µM (inactive) | 1.77 µM (inactive) | 76.2 µM (inactive) | 5.12 µM (inactive) | 4.61 µM (inactive) | 4.84 µM (inactive) | 8.65 µM (inactive) | 5.3 µM (inactive) | 13.6 µM (inactive) | 15.8 µM (inactive) | 4.25 µM (inactive)
CC(CO)CCNc1ncnc2c1ncn2CCC(=O)OC(C)(C)C (stereo not given) | > 100 µM (inactive) | > 100 µM (inactive) | > 100 µM (inactive) | > 100 µM (inactive) | > 100 µM (inactive) | > 100 µM (inactive) | > 100 µM (inactive) | > 100 µM (inactive) | > 100 µM (inactive) | > 100 µM (inactive) | > 100 µM (inactive) | > 100 µM (inactive) | > 100 µM (inactive) | > 100 µM (inactive) | > 100 µM (inactive) | > 100 µM (inactive) | > 100 µM (inactive) | > 100 µM (inactive)
Cc1nc(C)c(N2CCN(CN)CC2)c(O)n1 | > 100 µM (inactive) | > 100 µM (inactive) | > 100 µM (inactive) | > 100 µM (inactive) | > 100 µM (inactive) | > 100 µM (inactive) | > 100 µM (inactive) | > 100 µM (inactive) | > 100 µM (inactive) | > 100 µM (inactive) | > 100 µM (inactive) | > 100 µM (inactive) | > 100 µM (inactive) | > 100 µM (inactive) | > 100 µM (inactive) | > 100 µM (inactive) | > 100 µM (inactive) | > 100 µM (inactive)
CCOC(=O)/C=C(/C(=O)OCC)n1cc(C)c(=O)n(Cc2cnnn2COCCOC(C)=O)c1=O | 23.6 µM (inactive) | 17.4 µM (inactive) | 15.3 µM (inactive) | 50.4 µM (inactive) | 2.43 µM (inactive) | 17.2 µM (inactive) | 14.4 µM (inactive) | 3.48 µM (inactive) | 19.1 µM (inactive) | 14.1 µM (inactive) | 13.9 µM (inactive) | 16 µM (inactive) | 6.05 µM (inactive) | 15.2 µM (inactive) | 13.3 µM (inactive) | 2.99 µM (inactive) | 2.8 µM (inactive) | 3.94 µM (inactive)
Cc1nc2c(nc1C)-c1c(c3c(n1Cc1ccccc1)C(=O)CCC3)C(=O)C2=O | 3.84 µM (inactive) | 2.21 µM (inactive) | 2.38 µM (inactive) | 3.93 µM (inactive) | 3.4 µM (inactive) | 5.27 µM (inactive) | 2.31 µM (inactive) | 3.09 µM (inactive) | 4.2 µM (inactive) | 5.69 µM (inactive) | 4.65 µM (inactive) | 3.61 µM (inactive) | 2.07 µM (inactive) | 14.5 µM (inactive) | 4.84 µM (inactive) | 2.96 µM (inactive) | 3.35 µM (inactive) | 2.9 µM (inactive)
O=C(O)CNc1ccc(C(=O)O)cc1 | > 100 µM (inactive) | > 100 µM (inactive) | > 100 µM (inactive) | > 100 µM (inactive) | > 100 µM (inactive) | > 100 µM (inactive) | > 100 µM (inactive) | 2.85 µM (inactive) | > 100 µM (inactive) | > 100 µM (inactive) | > 100 µM (inactive) | > 100 µM (inactive) | > 100 µM (inactive) | > 100 µM (inactive) | > 100 µM (inactive) | > 100 µM (inactive) | > 100 µM (inactive) | > 100 µM (inactive)
